Results: article PMC7865387, “Artemether-Loaded Zein Nanoparticles: An Innovative Intravenous Dosage Form for the Management of Severe Malaria” (International Journal of Molecular Sciences, 2021)

Key:
red blood cells (RBCs) = experiment: In vitro hemolytic test; assay type: cell-based; details: artemether 2 mg/mL in 5% DMSO; 4% v/v rat RBCs, 37 °C, 1 h; positive control Triton X 100
Method: This test was performed to examine the hemolytic potential of artemether-loaded zein nanoparticles and the formulation ingredients on red blood cells (RBCs). Freshly collected rat blood was centrifuged at 1500× g for 10 min at 4 °C. The plasma was collected for other purpose. The remaining RBCs were washed with PBS and then centrifuged at 1500× g at 4 °C for 5 min. After two repeats of such procedures, the RBCs were diluted 25 times with PBS to make a 4% v/v RBCs dispersion. Such RBCs were kept at 4 °C and used within 24 h. The impact of artemether-loaded zein nanoparticles containing 2 mg/mL artemether, raw artemether in 5% v/v aqueous DMSO solution (2 mg/mL), 5% v/v aqueous DMSO solution, sodium caseinate (7.5 mg/mL) solution, artemether (2 mg/mL) together with sodium caseinate (7.5 mg/mL) solution was assessed. PBS and 1% v/v Triton-X 100 solution were assessed by adding 1 mL of the test solutions each to 1 mL of the 4% v/v RBCs dispersion. Each sample was incubated with the RBCs at 37 °C for 1 h and then centrifuged at 1500× g for 10 min. The absorbance of the supernatant was taken at 550 nm with U-2900 UV spectrophotometer (Hitachi, Japan). Percentage haemolysis was calculated as follows:(3) Hemolysis (%)=AbsorbanceTest group−AbsorbancePBS/AbsorbanceTriton−X100−AbsorbancePBS×100%

[1] = In vitro release study (sample and separate method); assay type: physicochemical; details: PBS pH 7.4, 37 °C, sink conditions; n = 3
Method: The dissolution profile of artemether-loaded zein nanoparticles was studied by the “sample and separate” method. In brief, artemether-loaded zein nanoparticle powders containing 6 mg artemether were put in 100 mL phosphate buffered saline (PBS) of pH 7.4. The study was performed under sink conditions at 37 ± 0.5 °C with 150 rpm stirring. The beaker was covered with parafilm to minimize water loss via evaporation. In total, 1 mL samples were withdrawn at selected time points (1/12, 1/6, 1/4, 1/2, 1, 2, 3, 4, 5, 6, 24 h). Samples were centrifuged at 10,800 rpm for 30 min and the supernatants were analyzed by HPLC in the same way as drug content. Then, 1 mL PBS at 37 °C was added after each sampling to maintain sink condition. The experiment was repeated 3 times to ensure consistency. Raw artemether was used as control. Mean values and standard deviations were subsequently calculated.

[2] = parameters: method as in PMID 21914160; details: intravenous artesunate, clinical practice; cited from earlier work
[3] = cited from earlier work

In the case of CO[C@H]1O[C@@H]2O[C@@]3(C)CC[C@H]4[C@H](C)CC[C@@H]([C@H]1C)[C@@]24OO3 [artemether], the “hemolytic effect (in words)” value (red blood cells (RBCs)) is reported as “destroyed RBCs as much as the positive control” and the “artemether released / dissolved within 5 h” value [1] is reported as “almost all”.
For C[C@H]1[C@H](OC(=O)CCC(=O)O)O[C@@H]2O[C@@]3(C)CC[C@H]4[C@H](C)CC[C@@H]1[C@@]24OO3 [artesunate], the half-life [2] is given as “less than 1 h”.
In the case of Zein, the “isoelectric point (pI)” value [3] is given as 6.2.
For sodium caseinate, the “isoelectric point (pI)” value [3] is listed as 4.5.
